Laboratory results published in patent US20170334899A1, “AMINO-SUBSTITUTED ISOTHIAZOLES” (Bayer Pharma Aktiengesellschaft, priority 2014, published 2017).

Legend:
CDK2/CycE = target: T1, CDK2/CycE (Homo sapiens, UniProt P24941); test: CDK2/CycE kinase assay (TR-FRET); type: biochemical; details: avg, read-out: CDK2 avg (IC50 [mol/l])
T1 construct: GST; purchased ProQinase GmbH (Freiburg, Germany); host or cells: insect cells (Sf9)
Summary of the method: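 GST-tagged human CDK2 and CycE from Sf9 cells, preincubated 15 min with compound, then 25 min at 22° C. with 10 μM ATP and 0.75 μM biotinylated Rb-derived peptide (final). Phospho-substrate read by TR-FRET (anti-pRB pSer807/pSer811, Eu anti-mouse IgG, streptavidin-XL665), 665/620 nm ratio, normalised to no-inhibitor and no-enzyme controls.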

[1] = test system: human cervical tumor cell line HeLa (ATCC CCL-2); test: SAC-Formation - Nocodazole-Induced Assay; type: cell-based; details: Homo sapiens, HeLa, 24 h, HeLa cells, nocodazole 0.1 μg/ml together with test compound, decrease of mitotic cells (phospho-histone H3 Ser10)
Summary of the method: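 HeLa cells, plated overnight, were treated 24 h at 37 °C with nocodazole (0.1 μg/ml final) plus test compound (0.005–20 μM, 0.5% DMSO) added at the same time. After fixation, anti-phospho-histone H3 Ser10 and Hoechst staining gave the mitotic cell fraction by imaging. Values came from four-parameter Hill fits.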

Question: For Cc1nsc(Nc2cnc(C(F)(F)F)cn2)c1C(=O)Nc1ccc(O[C@@H]2CCN(CC(F)(F)F)C[C@H]2F)nc1 [Example 367, N-(6-{[(3R,4R)-3-fluoro-1-(2,2,2-trifluoroethyl)piperidin-4-yl]oxy}pyridin-3-yl)-3-methyl-5-{[5-(trifluoromethyl)pyrazin-2-yl]amino}-1,2-thiazole-4-carboxamide], which IC50 (CDK2/CycE) is on record?
Answer: > 20000 nM

Question: And the IC50 [1]?
Answer: 27 nM

Question: Which IC50 (CDK2/CycE) does the source give for Cc1nsc(Nc2cnc(C(F)(F)F)cn2)c1C(=O)Nc1ccc(O[C@@H]2CCN(CCC(F)(F)F)C[C@H]2F)nc1 [Example 368, N-(6-{[(3R,4R)-3-fluoro-1-(3,3,3-trifluoropropyl)piperidin-4-yl]oxy}pyridin-3-yl)-3-methyl-5-{[5-(trifluoromethyl)pyrazin-2-yl]amino}-1,2-thiazole-4-carboxamide] here?
Answer: > 20000 nM

Question: And the IC50 [1]?
Answer: 16 nM

Question: With CCN1CC[C@@H](Oc2ccc(NC(=O)c3c(C)nsc3Nc3cnc(C(F)(F)F)cn3)cn2)[C@H](F)C1 [Example 369, N-(6-{[(3R,4R)-1-ethyl-3-fluoropiperidin-4-yl]oxy}pyridin-3-yl)-3-methyl-5-{[5-(trifluoromethyl)pyrazin-2-yl]amino}-1,2-thiazole-4-carboxamide] as the compound, how does the IC50 (CDK2/CycE) read?
Answer: > 20000 nM

Question: What about the IC50 [1] of the same compound?
Answer: 58 nM

Question: For CCCN1CC[C@H](Oc2ccc(NC(=O)c3c(C)nsc3Nc3cnc(C(F)(F)F)cn3)cn2)[C@@H](F)C1 [Example 370, N-(6-{[(3S,4S)-3-fluoro-1-propylpiperidin-4-yl]oxy}pyridin-3-yl)-3-methyl-5-{[5-(trifluoromethyl)pyrazin-2-yl]amino}-1,2-thiazole-4-carboxamide], which IC50 (CDK2/CycE) is on record?
Answer: > 20000 nM

Question: What about the IC50 [1] of the same compound?
Answer: 22 nM

Question: CCCN1CC[C@@H](Oc2ccc(NC(=O)c3c(C)nsc3Nc3cnc(C(F)(F)F)cn3)cn2)[C@H](F)C1 [Example 371, N-(6-{[(3R,4R)-3-fluoro-1-propylpiperidin-4-yl]oxy}pyridin-3-yl)-3-methyl-5-{[5-(trifluoromethyl)pyrazin-2-yl]amino}-1,2-thiazole-4-carboxamide] was tested. Which IC50 (CDK2/CycE) did it give?
Answer: > 20000 nM

Question: And the IC50 [1]?
Answer: 27 nM

Question: Cc1nsc(Nc2cnc(C(F)(F)F)cn2)c1C(=O)Nc1ccc(N2CCN(CC(F)F)CC2)cn1 [Example 372, N-{5-[4-(2,2-difluoroethyl)piperazin-1-yl]pyridin-2-yl}-3-methyl-5-{[5-(trifluoromethyl)pyrazin-2-yl]amino}-1,2-thiazole-4-carboxamide] was tested. Which IC50 (CDK2/CycE) did it give?
Answer: > 20000 nM

Question: And the IC50 [1]?
Answer: 120 nM

Question: What does the source list for Cc1nsc(Nc2cnc(C(F)(F)F)cn2)c1C(=O)Nc1ccc(N2CCN(CC(F)(F)F)CC2)cn1 [Example 373, 3-methyl-N-{5-[4-(2,2,2-trifluoroethyl)piperazin-1-yl]pyridin-2-yl}-5-{[5-(trifluoromethyl)pyrazin-2-yl]amino}-1,2-thiazole-4-carboxamide]?
Answer: IC50 (CDK2/CycE): > 20000 nM; IC50 [1]: 260 nM

Question: With Cc1nsc(Nc2cnc(C(F)(F)F)cn2)c1C(=O)Nc1ccc(N2CCN(CCC(F)(F)F)CC2)cn1 [Example 374, 3-methyl-5-{[5-(trifluoromethyl)pyrazin-2-yl]amino}-N-{5-[4-(3,3,3-trifluoropropyl)piperazin-1-yl]pyridin-2-yl}-1,2-thiazole-4-carboxamide] as the compound, how does the IC50 (CDK2/CycE) read?
Answer: > 20000 nM

Question: And the IC50 [1]?
Answer: 120 nM

Question: Cc1nsc(Nc2cnc(C(F)(F)F)cn2)c1C(=O)Nc1ccc(OC[C@@H]2CCCN(CC(F)F)C2)nc1 [Example 375, N-(6-{[(3R)-1-(2,2-difluoroethyl)piperidin-3-yl]methoxy}pyridin-3-yl)-3-methyl-5-{[5-(trifluoromethyl)pyrazin-2-yl]amino}-1,2-thiazole-4-carboxamide] was tested. Which IC50 (CDK2/CycE) did it give?
Answer: > 20000 nM

Question: And the IC50 [1]?
Answer: 40 nM

Question: With Cc1nsc(Nc2cnc(C(F)(F)F)cn2)c1C(=O)Nc1ccc(OC[C@@H]2CCCN(CC(F)(F)F)C2)nc1 [Example 376, 3-methyl-N-(6-{[(3R)-1-(2,2,2-trifluoroethyl)piperidin-3-yl]methoxy}pyridin-3-yl)-5-{[5-(trifluoromethyl)pyrazin-2-yl]amino}-1,2-thiazole-4-carboxamide] as the compound, how does the IC50 (CDK2/CycE) read?
Answer: > 20000 nM

Question: What about the IC50 [1] of the same compound?
Answer: 50 nM

Question: Which results are given for Cc1nsc(Nc2cnc(C(F)(F)F)cn2)c1C(=O)Nc1ccc(OC[C@@H]2CCCN(CCC(F)(F)F)C2)nc1 [Example 377, 3-methyl-5-{[5-(trifluoromethyl)pyrazin-2-yl]amino}-N-(6-{[(3R)-1-(3,3,3-trifluoropropyl)piperidin-3-yl]methoxy}pyridin-3-yl)-1,2-thiazole-4-carboxamide]?
Answer: IC50 (CDK2/CycE): > 20000 nM; IC50 [1]: 40 nM

Question: Cc1nsc(Nc2cnc(C(F)(F)F)cn2)c1C(=O)Nc1ccc(O[C@@H]2CCN(CC(F)F)C2)nc1 [Example 379, N-(6-{[(3R)-1-(2,2-difluoroethyl)pyrrolidin-3-yl]oxy}pyridin-3-yl)-3-methyl-5-{[5-(trifluoromethyl)pyrazin-2-yl]amino}-1,2-thiazole-4-carboxamide] was tested. Which IC50 (CDK2/CycE) did it give?
Answer: > 20000 nM

Question: What about the IC50 [1] of the same compound?
Answer: 34 nM

Question: What does the source list for Cc1nsc(Nc2cnc(C(F)(F)F)cn2)c1C(=O)Nc1ccc(O[C@@H]2CCN(CC(F)(F)F)C2)nc1 [Example 380, 3-methyl-N-(6-{[(3R)-1-(2,2,2-trifluoroethyl)pyrrolidin-3-yl]oxy}pyridin-3-yl)-5-{[5-(trifluoromethyl)pyrazin-2-yl]amino}-1,2-thiazole-4-carboxamide]?
Answer: IC50 (CDK2/CycE): > 20000 nM; IC50 [1]: 340 nM

Question: What does the source list for Cc1nsc(Nc2cnc(C(F)(F)F)cn2)c1C(=O)Nc1ccc(O[C@@H]2CCN(CCC(F)(F)F)C2)nc1 [Example 381, 3-methyl-5-{[5-(trifluoromethyl)pyrazin-2-yl]amino}-N-(6-{[(3R)-1-(3,3,3-trifluoropropyl)pyrrolidin-3-yl]oxy}pyridin-3-yl)-1,2-thiazole-4-carboxamide]?
Answer: IC50 (CDK2/CycE): > 20000 nM; IC50 [1]: 47 nM

Question: Which IC50 (CDK2/CycE) does the source give for Cc1nsc(Nc2cnc(C(F)(F)F)cn2)c1C(=O)Nc1ccc(O[C@H]2CCN(CC(F)F)C2)nc1 [Example 382, N-(6-{[(3S)-1-(2,2-difluoroethyl)pyrrolidin-3-yl]oxy}pyridin-3-yl)-3-methyl-5-{[5-(trifluoromethyl)pyrazin-2-yl]amino}-1,2-thiazole-4-carboxamide] here?
Answer: > 20000 nM

Question: What about the IC50 [1] of the same compound?
Answer: 24 nM

Question: How did the IC50 (CDK2/CycE) turn out when Cc1nsc(Nc2cnc(C(F)(F)F)cn2)c1C(=O)Nc1ccc(O[C@H]2CCN(CC(F)(F)F)C2)nc1 [Example 383, 3-methyl-N-(6-{[(3S)-1-(2,2,2-trifluoroethyl)pyrrolidin-3-yl]oxy}pyridin-3-yl)-5-{[5-(trifluoromethyl)pyrazin-2-yl]amino}-1,2-thiazole-4-carboxamide] was run?
Answer: > 20000 nM

Question: What about the IC50 [1] of the same compound?
Answer: 27 nM

Question: Which IC50 (CDK2/CycE) does the source give for Cc1nsc(Nc2cnc(C(F)(F)F)cn2)c1C(=O)Nc1ccc(O[C@H]2CCN(CCC(F)(F)F)C2)nc1 [Example 384, 3-methyl-5-{[5-(trifluoromethyl)pyrazin-2-yl]amino}-N-(6-{[(3S)-1-(3,3,3-trifluoropropyl)pyrrolidin-3-yl]oxy}pyridin-3-yl)-1,2-thiazole-4-carboxamide] here?
Answer: > 20000 nM

Question: What about the IC50 [1] of the same compound?
Answer: 62 nM

Question: Which results are given for Cc1nsc(Nc2cnc(C(F)(F)F)cn2)c1C(=O)Nc1ccc(O[C@@H]2CCCN(CC(F)F)C2)nc1 [Example 385, N-(6-{[(3R)-1-(2,2-difluoroethyl)piperidin-3-yl]oxy}pyridin-3-yl)-3-methyl-5-{[5-(trifluoromethyl)pyrazin-2-yl]amino}-1,2-thiazole-4-carboxamide]?
Answer: IC50 (CDK2/CycE): > 20000 nM; IC50 [1]: 180 nM

Question: Which IC50 (CDK2/CycE) does the source give for Cc1nsc(Nc2cnc(C(F)(F)F)cn2)c1C(=O)Nc1ccc(O[C@@H]2CCCN(CC(F)(F)F)C2)nc1 [Example 386, 3-methyl-N-(6-{[(3R)-1-(2,2,2-trifluoroethyl)piperidin-3-yl]oxy}pyridin-3-yl)-5-{[5-(trifluoromethyl)pyrazin-2-yl]amino}-1,2-thiazole-4-carboxamide] here?
Answer: > 20000 nM

Question: And the IC50 [1]?
Answer: 41 nM

Question: What does the source list for Cc1nsc(Nc2cnc(C(F)(F)F)cn2)c1C(=O)Nc1ccc(O[C@@H]2CCCN(CCC(F)(F)F)C2)nc1 [Example 387, 3-methyl-5-{[5-(trifluoromethyl)pyrazin-2-yl]amino}-N-(6-{[(3R)-1-(3,3,3-trifluoropropyl)piperidin-3-yl]oxy}pyridin-3-yl)-1,2-thiazole-4-carboxamide]?
Answer: IC50 (CDK2/CycE): > 20000 nM; IC50 [1]: 70 nM

Question: Cc1nsc(Nc2cnc(C(F)(F)F)cn2)c1C(=O)Nc1ccc(O[C@H]2CCCN(CC(F)F)C2)nc1 [Example 388, N-(6-{[(3S)-1-(2,2-difluoroethyl)piperidin-3-yl]oxy}pyridin-3-yl)-3-methyl-5-{[5-(trifluoromethyl)pyrazin-2-yl]amino}-1,2-thiazole-4-carboxamide] was tested. Which IC50 (CDK2/CycE) did it give?
Answer: > 20000 nM

Question: And the IC50 [1]?
Answer: 37 nM

Question: Which IC50 (CDK2/CycE) does the source give for Cc1nsc(Nc2cnc(C(F)(F)F)cn2)c1C(=O)Nc1ccc(O[C@H]2CCCN(CC(F)(F)F)C2)nc1 [Example 389, 3-methyl-N-(6-{[(3S)-1-(2,2,2-trifluoroethyl)piperidin-3-yl]oxy}pyridin-3-yl)-5-{[5-(trifluoromethyl)pyrazin-2-yl]amino}-1,2-thiazole-4-carboxamide] here?
Answer: > 20000 nM

Question: And the IC50 [1]?
Answer: 93 nM

Question: For Cc1nsc(Nc2cnc(C(F)(F)F)cn2)c1C(=O)Nc1ccc(O[C@H]2CCCN(CCC(F)(F)F)C2)nc1 [Example 390, 3-methyl-5-{[5-(trifluoromethyl)pyrazin-2-yl]amino}-N-(6-{[(3S)-1-(3,3,3-trifluoropropyl)piperidin-3-yl]oxy}pyridin-3-yl)-1,2-thiazole-4-carboxamide], which IC50 (CDK2/CycE) is on record?
Answer: > 20000 nM

Question: And the IC50 [1]?
Answer: 110 nM
